Data from ChEMBL document CHEMBL4715760, “Balancing potency, metabolic stability and permeability in pyrrolopyrimidine-based EGFR inhibitors” (Eur J Med Chem, 2016).

How the values were obtained:
[1] = target: Protein kinase C theta type (Homo sapiens) (UniProt Q04759); test: Inhibition of recombinant human His-tagged full length PRKCQ expressed in baculovirus expression system at 500 nM using Ser/Thr 07 as substrate incubated for 1 hr in presence of ATP at its Km concentration by Z'-LYTE assay relative to control
[2] = target: T1, Aurora kinase A (Homo sapiens) (UniProt O14965); test: Inhibition of recombinant human full length His-tagged AURKA expressed in baculovirus expression system at 500 nM using Ser/Thr 01 as substrate incubated for 1 hr in presence of ATP at its Km concentration by Z'-LYTE assay relative to control
T1 sequence (whole entry): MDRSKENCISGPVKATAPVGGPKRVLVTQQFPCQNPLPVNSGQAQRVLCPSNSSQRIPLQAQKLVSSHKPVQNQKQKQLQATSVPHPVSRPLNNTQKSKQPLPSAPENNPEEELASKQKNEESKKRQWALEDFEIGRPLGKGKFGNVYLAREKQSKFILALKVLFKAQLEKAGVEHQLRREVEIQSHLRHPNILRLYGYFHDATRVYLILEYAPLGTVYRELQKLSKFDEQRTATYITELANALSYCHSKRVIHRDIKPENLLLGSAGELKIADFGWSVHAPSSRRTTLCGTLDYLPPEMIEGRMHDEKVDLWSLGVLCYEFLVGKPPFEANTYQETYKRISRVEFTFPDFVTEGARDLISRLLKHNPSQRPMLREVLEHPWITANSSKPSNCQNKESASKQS

[3] = target: Vascular endothelial growth factor receptor 3 (Homo sapiens) (UniProt P35916); test: Inhibition of recombinant human GST-tagged FLT4 (800 to 1297 residues) expressed in baculovirus expression system at 500 nM using Tyr 04 peptide as substrate incubated for 1 hr in presence of ATP at its Km concentration by Z'-LYTE assay relative to control
[4] = target: Mitogen-activated protein kinase 8 (Homo sapiens) (UniProt P45983); test: Inhibition of recombinant human His tagged human MAPK8 expressed in baculovirus expression system at 500 nM using Ser/Thr 04 as substrate incubated for 1 hr in presence of 100 uM ATP by Z'-LYTE assay relative to control
[5] = target: Glycogen synthase kinase-3 beta (Homo sapiens) (UniProt P49841); test: Inhibition of recombinant full-length human His-tagged GSK3beta expressed in baculovirus expression system at 500 nM using Ser/Thr 09 as substrate incubated for 1 hr in presence of ATP at its Km concentration by Z'-LYTE assay relative to control
[6] = target: Fibroblast growth factor receptor 1 (Homo sapiens) (UniProt P11362); test: Inhibition of recombinant human His-tagged FGFR1 (308 to 731 residues) expressed in baculovirus expression system at 500 nM using Tyr 04 peptide as substrate incubated for 1 hr in presence of ATP at its Km concentration by Z'-LYTE assay relative to control
[7] = target: Serine/threonine-protein kinase B-raf (Homo sapiens) (UniProt P15056); test: Inhibition of recombinant human GST-tagged full length BRAF expressed in baculovirus expression system at 500 nM using Ser/Thr 03 peptide as substrate incubated for 1 hr in presence of 100 uM ATP by Z'-LYTE assay relative to control
[8] = target: Protein kinase C beta type (Homo sapiens) (UniProt P05771); test: Inhibition of human full length GST tagged PRKCB1 expressed in insect cells at 500 nM using Ser/Thr 07 as substrate incubated for 1 hr in presence of ATP at its Km concentration by Z'-LYTE assay relative to control
[9] = target: cAMP-dependent protein kinase catalytic subunit alpha (Homo sapiens) (UniProt P17612); test: Inhibition of recombinant human His-tagged PRKACA (1 to 351 residues) expressed in Escherichia coli expression system at 500 nM using Ser/Thr 01 as substrate incubated for 1 hr in presence of ATP at its Km concentration by Z'-LYTE assay relative to control
[10] = target: Ephrin type-A receptor 2 (Homo sapiens) (UniProt P29317); test: Inhibition of recombinant human GST-tagged EPHA2 cytoplasmic domain expressed in baculovirus expression system at 500 nM using Tyr 01 peptide as substrate incubated for 1 hr in presence of ATP at its Km concentration by Z'-LYTE assay relative to control
Ephrin type-A receptor 2 (Homo sapiens), sequence (P29317 whole entry, the tested form may be a part): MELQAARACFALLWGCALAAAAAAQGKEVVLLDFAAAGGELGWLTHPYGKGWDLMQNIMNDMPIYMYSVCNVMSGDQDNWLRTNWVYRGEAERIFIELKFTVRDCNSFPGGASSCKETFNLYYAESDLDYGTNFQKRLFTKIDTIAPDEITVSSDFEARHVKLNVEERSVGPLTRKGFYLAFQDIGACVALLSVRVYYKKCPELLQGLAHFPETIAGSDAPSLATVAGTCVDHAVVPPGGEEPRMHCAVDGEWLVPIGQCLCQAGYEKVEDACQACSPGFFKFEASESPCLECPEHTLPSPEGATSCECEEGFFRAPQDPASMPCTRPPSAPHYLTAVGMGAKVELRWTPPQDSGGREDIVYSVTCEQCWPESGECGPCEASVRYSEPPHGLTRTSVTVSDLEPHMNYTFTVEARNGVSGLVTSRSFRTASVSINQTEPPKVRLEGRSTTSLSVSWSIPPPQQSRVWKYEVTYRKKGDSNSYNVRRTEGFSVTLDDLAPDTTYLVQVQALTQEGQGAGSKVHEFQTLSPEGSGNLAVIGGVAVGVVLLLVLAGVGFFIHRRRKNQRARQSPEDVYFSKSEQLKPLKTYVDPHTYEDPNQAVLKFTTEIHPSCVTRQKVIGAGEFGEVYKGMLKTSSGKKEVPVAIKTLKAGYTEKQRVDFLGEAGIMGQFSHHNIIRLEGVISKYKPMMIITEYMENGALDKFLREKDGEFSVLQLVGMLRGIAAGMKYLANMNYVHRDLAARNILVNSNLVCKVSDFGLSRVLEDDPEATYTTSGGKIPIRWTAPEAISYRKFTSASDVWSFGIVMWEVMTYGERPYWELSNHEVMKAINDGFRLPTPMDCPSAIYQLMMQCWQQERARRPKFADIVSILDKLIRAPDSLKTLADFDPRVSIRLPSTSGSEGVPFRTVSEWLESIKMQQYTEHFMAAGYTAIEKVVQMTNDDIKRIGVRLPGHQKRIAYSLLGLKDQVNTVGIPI

Glycogen synthase kinase-3 beta (Homo sapiens), sequence (P49841 whole entry, looked up, the tested form may be a part): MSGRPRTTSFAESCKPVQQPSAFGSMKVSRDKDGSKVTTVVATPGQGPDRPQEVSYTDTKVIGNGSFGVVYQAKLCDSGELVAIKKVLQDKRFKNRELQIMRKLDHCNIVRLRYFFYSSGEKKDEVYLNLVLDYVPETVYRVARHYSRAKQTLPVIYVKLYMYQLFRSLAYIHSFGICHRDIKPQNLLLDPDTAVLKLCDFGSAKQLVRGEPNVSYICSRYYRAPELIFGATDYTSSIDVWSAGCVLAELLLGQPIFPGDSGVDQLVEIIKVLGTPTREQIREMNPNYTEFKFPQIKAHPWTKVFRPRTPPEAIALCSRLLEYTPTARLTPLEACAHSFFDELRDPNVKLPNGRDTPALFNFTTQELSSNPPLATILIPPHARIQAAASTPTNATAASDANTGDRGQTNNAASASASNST
Mitogen-activated protein kinase 8 (Homo sapiens), sequence (P45983 whole entry): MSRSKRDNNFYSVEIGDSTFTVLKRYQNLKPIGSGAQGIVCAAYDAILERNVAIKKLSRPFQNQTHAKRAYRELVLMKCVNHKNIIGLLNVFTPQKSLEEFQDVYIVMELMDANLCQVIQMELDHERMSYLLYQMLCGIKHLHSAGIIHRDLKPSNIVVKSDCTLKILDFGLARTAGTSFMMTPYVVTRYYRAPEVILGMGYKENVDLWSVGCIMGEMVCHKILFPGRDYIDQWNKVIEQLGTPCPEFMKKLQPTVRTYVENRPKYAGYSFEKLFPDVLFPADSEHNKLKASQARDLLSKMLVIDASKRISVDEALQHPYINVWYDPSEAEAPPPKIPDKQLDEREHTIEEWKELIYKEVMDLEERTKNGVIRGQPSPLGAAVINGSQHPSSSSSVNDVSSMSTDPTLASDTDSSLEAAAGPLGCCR
Serine/threonine-protein kinase B-raf (Homo sapiens), sequence (P15056 whole entry): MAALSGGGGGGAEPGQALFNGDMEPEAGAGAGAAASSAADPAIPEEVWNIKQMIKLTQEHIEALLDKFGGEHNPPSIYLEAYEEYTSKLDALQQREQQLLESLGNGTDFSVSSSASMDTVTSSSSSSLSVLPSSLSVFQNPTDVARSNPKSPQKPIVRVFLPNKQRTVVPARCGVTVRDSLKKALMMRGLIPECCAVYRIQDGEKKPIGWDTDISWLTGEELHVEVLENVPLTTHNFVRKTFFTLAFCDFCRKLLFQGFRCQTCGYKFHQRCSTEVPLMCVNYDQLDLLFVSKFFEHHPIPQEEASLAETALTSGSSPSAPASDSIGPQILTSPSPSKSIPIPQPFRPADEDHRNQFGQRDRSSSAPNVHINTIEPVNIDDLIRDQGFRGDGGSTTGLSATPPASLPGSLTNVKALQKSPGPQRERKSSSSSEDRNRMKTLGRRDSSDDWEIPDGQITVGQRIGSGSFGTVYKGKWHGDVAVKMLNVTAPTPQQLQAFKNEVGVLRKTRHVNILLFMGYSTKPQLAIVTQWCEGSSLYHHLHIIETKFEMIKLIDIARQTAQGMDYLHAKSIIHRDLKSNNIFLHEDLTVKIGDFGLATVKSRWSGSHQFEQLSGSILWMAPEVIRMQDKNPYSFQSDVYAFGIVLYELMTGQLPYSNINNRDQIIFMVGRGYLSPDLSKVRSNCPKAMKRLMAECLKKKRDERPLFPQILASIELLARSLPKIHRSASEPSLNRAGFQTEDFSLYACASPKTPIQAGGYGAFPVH
Protein kinase C theta type (Homo sapiens), sequence (Q04759 whole entry, looked up): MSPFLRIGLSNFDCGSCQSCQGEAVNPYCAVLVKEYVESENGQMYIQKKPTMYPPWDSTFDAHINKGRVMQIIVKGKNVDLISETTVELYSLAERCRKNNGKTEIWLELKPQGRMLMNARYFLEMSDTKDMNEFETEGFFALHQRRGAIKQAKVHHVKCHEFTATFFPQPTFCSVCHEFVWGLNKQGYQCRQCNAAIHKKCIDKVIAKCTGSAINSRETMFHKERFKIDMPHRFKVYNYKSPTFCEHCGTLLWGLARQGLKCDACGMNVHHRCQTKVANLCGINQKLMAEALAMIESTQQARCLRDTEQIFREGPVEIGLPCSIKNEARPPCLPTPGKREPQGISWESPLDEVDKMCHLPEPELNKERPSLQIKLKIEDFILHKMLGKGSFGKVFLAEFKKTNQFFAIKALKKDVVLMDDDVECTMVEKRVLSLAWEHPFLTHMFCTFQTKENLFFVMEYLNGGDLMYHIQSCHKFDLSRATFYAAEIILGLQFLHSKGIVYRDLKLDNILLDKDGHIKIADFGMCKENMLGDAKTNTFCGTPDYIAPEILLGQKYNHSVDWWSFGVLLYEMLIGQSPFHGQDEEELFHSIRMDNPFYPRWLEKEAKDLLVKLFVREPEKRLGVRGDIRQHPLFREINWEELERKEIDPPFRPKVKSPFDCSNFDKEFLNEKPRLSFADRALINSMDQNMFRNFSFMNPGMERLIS
Vascular endothelial growth factor receptor 3 (Homo sapiens), sequence (P35916 whole entry, the tested form may be a part): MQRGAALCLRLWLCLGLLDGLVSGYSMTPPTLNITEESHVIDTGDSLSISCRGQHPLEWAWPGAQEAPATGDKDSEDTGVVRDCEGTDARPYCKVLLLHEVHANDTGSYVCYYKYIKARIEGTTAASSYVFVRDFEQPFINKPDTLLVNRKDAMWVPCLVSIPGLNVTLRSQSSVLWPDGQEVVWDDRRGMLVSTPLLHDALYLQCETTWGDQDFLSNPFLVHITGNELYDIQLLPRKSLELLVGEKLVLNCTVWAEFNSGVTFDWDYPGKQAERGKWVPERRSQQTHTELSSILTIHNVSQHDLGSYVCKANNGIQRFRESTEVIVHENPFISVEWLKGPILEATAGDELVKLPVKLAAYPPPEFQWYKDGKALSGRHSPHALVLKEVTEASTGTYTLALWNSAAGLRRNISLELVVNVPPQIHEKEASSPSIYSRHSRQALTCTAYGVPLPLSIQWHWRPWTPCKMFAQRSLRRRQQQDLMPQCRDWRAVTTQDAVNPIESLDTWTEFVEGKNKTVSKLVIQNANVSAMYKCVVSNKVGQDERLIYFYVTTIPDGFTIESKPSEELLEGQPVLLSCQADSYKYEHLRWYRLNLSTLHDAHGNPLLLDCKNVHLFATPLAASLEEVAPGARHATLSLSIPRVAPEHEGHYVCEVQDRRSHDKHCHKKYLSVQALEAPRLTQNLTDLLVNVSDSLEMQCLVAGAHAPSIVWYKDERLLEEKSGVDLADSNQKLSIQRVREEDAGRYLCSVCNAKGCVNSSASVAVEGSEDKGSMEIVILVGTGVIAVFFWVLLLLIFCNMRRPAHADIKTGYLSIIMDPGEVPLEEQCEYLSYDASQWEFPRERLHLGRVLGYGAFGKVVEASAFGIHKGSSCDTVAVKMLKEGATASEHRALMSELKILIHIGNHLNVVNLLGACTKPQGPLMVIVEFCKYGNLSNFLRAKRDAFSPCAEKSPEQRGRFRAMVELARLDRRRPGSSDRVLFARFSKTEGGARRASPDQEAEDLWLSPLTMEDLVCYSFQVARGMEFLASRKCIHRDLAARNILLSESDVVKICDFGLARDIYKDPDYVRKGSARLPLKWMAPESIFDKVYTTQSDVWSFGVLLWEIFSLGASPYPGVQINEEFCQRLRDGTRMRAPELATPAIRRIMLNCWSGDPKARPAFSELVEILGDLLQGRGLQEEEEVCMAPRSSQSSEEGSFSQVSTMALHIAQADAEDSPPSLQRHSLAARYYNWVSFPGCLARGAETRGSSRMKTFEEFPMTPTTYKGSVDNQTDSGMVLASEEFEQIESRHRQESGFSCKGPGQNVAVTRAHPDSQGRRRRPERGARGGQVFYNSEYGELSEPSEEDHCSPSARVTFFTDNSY

| Compound | inhibition [1] [%] | inhibition [2] [%] | inhibition [3] [%] | inhibition [4] [%] | inhibition [5] [%] | inhibition [6] [%] | inhibition [7] [%] | inhibition [8] [%] | inhibition [9] [%] | inhibition [10] [%] |
| --- | --- | --- | --- | --- | --- | --- | --- | --- | --- | --- |
| OCC[C@@H](Nc1ncnc2[nH]c(-c3ccccc3)cc12)c1ccccc1 | 5 | -3 | 20 | 27 | 8 | 0 | -3 | 6 | 7 | 23 |
| CCOc1ccccc1-c1cc2c(N[C@H](CO)c3ccccc3)ncnc2[nH]1 | 2 | -2 | 21 | 17 | 13 | 3 | 7 | 15 | 6 | 21 |
| CN(C)CCNCc1ccc(-c2cc3c(N[C@H](CO)c4ccccc4)ncnc3[nH]2)cc1F | 1 | 3 | 27 | 19 | 8 | 9 | -4 | 17 | 4 | 54 |
| OC[C@@H](Nc1ncnc2[nH]c(-c3ccccc3)cc12)c1ccccc1 | 12 | 19 | 6 | 0 | 8 | 16 | -2 | 1 | 1 | 16 |
| C#Cc1cccc(Nc2ncnc3cc(OCCOC)c(OCCOC)cc23)c1 [ERLOTINIB] | -4 | 20 | 44 | 32 | -8 | -4 | 3 | -2 | -10 | 11 |
| COc1ccccc1-c1cc2c(N[C@H](CO)c3ccccc3)ncnc2[nH]1 | 5 | 9 | 12 | 7 | 6 | 6 | 4 | 8 | -1 | 7 |
